Measurements: US8163793B2, “Proline derivatives” (Hoffman-La Roche Inc., priority 2009, dated 2012)

Tests used:
Cat L = Cat L (UniProt P07711); assay: Cathepsin enzyme inhibition assay (fluorogenic peptide substrate Z-Val-Val-Arg-AMC), Cathepsin L; type: biochemical, human and mouse; conditions: enzyme 1 nM, substrate 20 μM, pH 6.5; read-out: CatL IC50
Method in brief: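 Cathepsin L at 1 nM was mixed with compound, then started with 20 μM Z-Val-Val-Arg-AMC in pH 6.5 potassium phosphate with EDTA, Triton X-100 and 5 mM DTT. AMC fluorescence (ex 360/em 465 nm) was followed over 20 min. IC50 is given in μM.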

Cathepsin S = Cathepsin S (UniProt P25774); assay: Cathepsin enzyme inhibition assay (fluorogenic peptide substrate Z-Val-Val-Arg-AMC), Cathepsin S; type: biochemical, human and mouse; conditions: enzyme 1 nM, substrate 20 μM, pH 6.5; read-out: CatS IC50
Method in brief: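 Human or mouse cathepsin S (1 nM) was run in 100 mM potassium phosphate pH 6.5 with 5 mM EDTA, 0.001% Triton X-100 and 5 mM DTT. The rise in AMC fluorescence from cleavage was measured, and IC50 values were calculated by standard methods and expressed in μM.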

| IC50 (Cat L) [µM] | IC50 (Cathepsin S) [nM] | Compound |
| --- | --- | --- |
| 8.93 | 0.4 | N#CC1(NC(=O)[C@@H]2C[C@@H](S(=O)(=O)c3ccc(OCC(F)(F)F)cc3Cl)CN2C(=O)C2(C(F)(F)F)CC2)CC1 [Example 172, (2S,4R)-4-[2-Chloro-4-(2,2,2-trifluoro-ethoxy)-benzenesulfonyl]-1-(1-trifluoromethyl-cyclopropanecarbonyl)-pyrrolidine-2-carboxylic acid (1-cyano-cyclopropyl)-amide] |
| 27.3 | 5.9 | N#CC1(NC(=O)[C@H]2CC(S(=O)(=O)c3ccc(OCC(F)(F)F)cc3Cl)CN2)CC1 (stereo partly drawn) [Example 173, (R)-4-[2-Chloro-4-(2,2,2-trifluoro-ethoxy)-benzenesulfonyl]-pyrrolidine-2-carboxylic acid (1-cyano-cyclopropyl)-amide] |
| 41.5 | 3.3 | CC(C)(C)OC(=O)N1C[C@H](S(=O)(=O)c2ccc(OC3COC3)cc2Cl)C[C@H]1C(=O)NC1(C#N)CC1 [Example 174, (2S,4R)-4-[2-Chloro-4-(oxetan-3-yloxy)-benzenesulfonyl]-2-(1-cyano-cyclopropylcarbamoyl)-pyrrolidine-1-carboxylic acid tert.-butyl ester] |
| 15.9 | 0.49 | CC1(C(=O)N2C[C@H](S(=O)(=O)c3ccc(OCC(F)(F)F)cc3Cl)C[C@H]2C(=O)NC2(C#N)CC2)CC1 [Example 175, (2S,4R)-4-[2-Chloro-4-(2,2,2-trifluoro-ethoxy)-benzenesulfonyl]-1-(1-methyl-cyclopropanecarbonyl)-pyrrolidine-2-carboxylic acid (1-cyano-cyclopropyl)-amide] |
| 35.8 | 0.98 | CC(C)(C)C(=O)N1C[C@H](S(=O)(=O)c2ccc(OCC(F)(F)F)cc2Cl)C[C@H]1C(=O)NC1(C#N)CC1 [Example 176, (2S,4R)-4-[2-Chloro-4-(2,2,2-trifluoro-ethoxy)-benzenesulfonyl]-1-(2,2-dimethyl-propionyl)-pyrrolidine-2-carboxylic acid (1-cyano-cyclopropyl)-amide] |
| 5.83 | 0.29 | N#CC1(NC(=O)[C@@H]2C[C@@H](S(=O)(=O)c3ccc(OCC(F)(F)F)cc3Cl)CN2C(=O)c2ccccc2C(F)(F)F)CC1 [Example 177, (2S,4R)-4-[2-Chloro-4-(2,2,2-trifluoro-ethoxy)-benzenesulfonyl]-1-(2-trifluoromethyl-benzoyl)-pyrrolidine-2-carboxylic acid (1-cyano-cyclopropyl)-amide] |
| 0.036 | 0.16 | N#CC1(NC(=O)[C@@H]2C[C@@H](S(=O)(=O)c3ccc(OCC(F)(F)F)cc3Cl)CN2C(=O)C2(c3ccc(Cl)cc3)CC2)CC1 [Example 178, (2S,4R)-1-[1-(4-Chloro-phenyl)-cyclopropanecarbonyl]-4-[2-chloro-4-(2,2,2-trifluoro-ethoxy)-benzenesulfonyl]-pyrrolidine-2-carboxylic acid (1-cyano-cyclopropyl)-amide] |
| 17.6 | 0.42 | CC(C)C(=O)N1C[C@H](S(=O)(=O)c2ccc(OCC(F)(F)F)cc2Cl)C[C@H]1C(=O)NC1(C#N)CC1 [Example 179, (2S,4R)-4-[2-Chloro-4-(2,2,2-trifluoro-ethoxy)-benzenesulfonyl]-1-isobutyryl-pyrrolidine-2-carboxylic acid (1-cyano-cyclopropyl)-amide] |

Further lines, the compound ahead of its results:

| Compound | IC50 (Cat L) [µM] | IC50 (Cathepsin S) [nM] |
| --- | --- | --- |
| N#CC1(NC(=O)[C@H]2C[C@@H](S(=O)(=O)c3ccc(N4CCOCC4)cc3Cl)CN2C(=O)C2(C(F)(F)F)CC2)CC1 [Example 162, (2R,4R)-4-(2-Chloro-4-morpholin-4-yl-benzenesulfonyl)-1-(1-trifluoromethyl-cyclopropanecarbonyl)-pyrrolidine-2-carboxylic acid (1-cyano-cyclopropyl)-amide] | ≥ 25 | 23.5 |
| N#CC1(NC(=O)[C@@H]2C[C@@H](S(=O)(=O)c3ccc(N4CCNCC4)cc3Cl)CN2C(=O)C2(C(F)(F)F)CC2)CC1 [Example 163, (2S,4R)-4-(2-Chloro-4-piperazin-1-yl-benzenesulfonyl)-1-(1-trifluoromethyl-cyclopropanecarbonyl)-pyrrolidine-2-carboxylic acid (1-cyano-cyclopropyl)-amide formiate] | 2.62 | 0.3 |
| N#CCNC(=O)[C@@H]1C[C@@H](S(=O)(=O)c2ccccc2C(F)(F)F)CN1c1ccccc1[N+](=O)[O-] [Example 164, (2S,4R)-1-(2-Nitro-phenyl)-4-(2-trifluoromethyl-benzenesulfonyl)-pyrrolidine-2-carboxylic acid cyanomethyl-amide] | ≥ 25 | 0.8 |
| N#CC1(NC(=O)[C@H]2C[C@@H](S(=O)(=O)c3ccc(-n4cccn4)cc3Cl)CN2C(=O)C2(C(F)(F)F)CC2)CC1 [Example 165, (2R,4R)-4-(2-Chloro-4-pyrazol-1-yl-benzenesulfonyl)-1-(1-trifluoromethyl-cyclopropanecarbonyl)-pyrrolidine-2-carboxylic acid (1-cyano-cyclopropyl)-amide] | ≥ 25 | 110 |
| N#CC1(NC(=O)[C@@H]2C[C@@H](S(=O)(=O)c3ccccc3C(F)(F)F)CN2c2ccccc2[N+](=O)[O-])CC1 [Example 166, (2S,4R)-1-(2-Nitro-phenyl)-4-(2-trifluoromethyl-benzenesulfonyl)-pyrrolidine-2-carboxylic Acid (1-cyano-cyclopropyl)-amide] | ≥ 25 | 0.6 |
| N#CC1(NC(=O)[C@@H]2C[C@@H](S(=O)(=O)c3ccc(Cl)cc3Cl)CN2c2ccccc2[N+](=O)[O-])CC1 [Example 167, (2S,4R)-4-(2,4-Dichloro-benzenesulfonyl)-1-(2-nitro-phenyl)-pyrrolidine-2-carboxylic acid (1-cyano-cyclopropyl)-amide] | 17.4 | 1.4 |
| N#CC1(NC(=O)[C@@H]2C[C@@H](S(=O)(=O)c3ccc(Cl)cc3Cl)CN2C(=O)C2(C(F)(F)F)CC2)CC1 [Example 168, (2S,4R)-4-(2,4-Dichloro-benzenesulfonyl)-1-(1-trifluoromethyl-cyclopropanecarbonyl)-pyrrolidine-2-carboxylic acid (1-cyano-cyclopropyl)-amide] | 8.8 | 0.6 |
| N#CC1(NC(=O)[C@@H]2C[C@@H](S(=O)(=O)c3ccc(Cl)cc3Cl)CN2C(=O)C2(C(F)(F)F)CCC2)CC1 [Example 169, (2S,4R)-4-(2,4-Dichloro-benzenesulfonyl)-1-(1-trifluoromethyl-cyclobutanecarbonyl)-pyrrolidine-2-carboxylic acid (1-cyano-cyclopropyl)-amide] | 7.58 | 0.4 |
| N#CC1(NC(=O)[C@@H]2C[C@@H](S(=O)(=O)c3ccc(Cl)cc3Cl)CN2C(=O)C2CC2(F)F)CC1 (stereo partly drawn) [Example 170, (2S,4R)-4-(2,4-Dichloro-benzenesulfonyl)-1-(2,2-difluoro-cyclopropanecarbonyl)-pyrrolidine-2-carboxylic acid (1-cyano-cyclopropyl)-amide] | 18.4 | 1 |
| CC(C)(C)OC(=O)N1C[C@H](S(=O)(=O)c2ccc(OCC(F)(F)F)cc2Cl)C[C@H]1C(=O)NC1(C#N)CC1 [Example 171, (2S,4R)-4-[2-Chloro-4-(2,2,2-trifluoro-ethoxy)-benzenesulfonyl]-2-(1-cyano-cyclopropylcarbamoyl)-pyrrolidine-1-carboxylic acid tert.-butyl ester] | ≥ 25 | 7 |
